Reference: patent US6380177B1, “LPA analogs as agonists of the Edg2 LPA receptor” (Atairgin Technologies, Inc., priority 1999, dated 2002)
pEC50: −log10 of the molar value. Entries after “also recorded” stand apart in the source; their conditions may differ.

Tests used:
Edg2 receptor [1] = biological target: T1, Edg2 receptor (Homo sapiens, UniProt Q92633); assay: FUS1::lacZ reporter assay in yeast expressing the Edg2 receptor; type: cell-based; conditions: for activation of FUS1::lacZ by 18:1 analogs (FIG. 4): 200 μM LPA or LPA analog, 18:1 acyl LPA as 100%
T1 construct: expressed in transfected cells; host or cells: Saccharomyces cerevisiae JEY5 + pJE15
Text: A yeast expressing the Edg2 receptor is one way to avoid such problems of multiple receptors. Edg2 has been functionally expressed in the yeast Saccharomyces cerevisiae and provides a facile system with which to analyze this particular receptor. Edg2 couples to the yeast pheromone response pathway selectively in response to exogenously added LPA and activates two easily assayed reporter genes, lacZ and HIS3, that are fused to the pheromone-inducible FUS1 promoter. […] Although the yeast assay is relatively insensitive to LPA compared with mammalian signaling events (the yeast assay has an E.C.50 of 20 μM), yeast offers the advantage of specificity; the induction of FUS1::lacZ by LPA is absolutely dependent on the Edg2 receptor being expressed.
LacZ assays in response to lysophosphatidic acid and LPA analogs- JEY5+pJE15 was grown on SC media containing either 2% galactose or 2% glucose lacking uracil to an approximate O.D. of 0.1-0.5 prior to the addition of lipid or α-factor. Acyl-LPA chain length analogs; 6:0, 10:0, 14:0, 16:0, 18:0, 18:1 and 24:1 (Avanti Polar Lipids) were stored dissolved in chloroform and dried down under vacuum immediately prior to experiments and resuspended in BBS/EDTA (50 mM NH4HCO3, 104 mM NaCl, 250 μM EDTA2Na pH 7.63) at 20 mM with sonication until the solution was clear. The other analogs that were custom synthesized for this report were stored in 100% ethanol at −20° C., dried and resuspended in BBS/EDTA immediately prior to use. Analogs not having a phosphate were stored in 100% DMSO and added directly to the yeast culture. […] Cells were grown for 7 hours prior to assaying at which time 100 μl of yeast culture were then added to […] assay buffer (60 mM Na2HPO4, 40 mM NaH2PO4, 10 mM KCl, 0.1 mM MgSO4, pH 7.0 plus 2.7 mL β-mercaptoethanol per liter) plus 50 μl 0.1% SDS+three drops Chloroform. Cells were vortexed for 10 seconds and incubated for 5 minutes at 28° C. 200 μl of 4mg/ml o-nitrophenol-β-D-galactopyranoside (ONPG, Sigma) was added and the reaction was incubated 30 minutes at 28° C. The assay was stopped by the addition of 500 μl 1M Na2CO3. Color development was measured at A420 and normalized to A600. Units were expressed as Miller Units. Competition assays between 18:1 acyl-LPA and the short chain analogs were essentially performed in the same manner except that both lipids were added simultaneously and the yeast was allowed to grow for the standard seven-hour time period. ERK immune complex kinase assays- C3H/10T½ cells were cultured in Basal Medium Eagle (BME, Gibco)+10% heat inactivated fetal calf serum until quiescent in 6 cm dishes. Cultures were serum starved for 18 hours in BME and stimulated with LPA or an LPA analog for 5 minutes. Dishes were placed on ice, washed with ice cold PBS and lysed in 500 μL lysis buffer (20 mM Tris pH8.0, 137 mM NaCl, 1mM EGTA, 1% Triton X-100, 10% glycerol, 15 mM MgCl2, 1 mM NaVO4, 50 mM NaF, 1mM Pefabloc, 20 μM Leupeptin, 10 μg/mL Aprotinin). To 200 μg total protein, 2 μL anti-ERK1 and 2 μL anti-ERK2 (Santa Cruz) plus 20 μL protein G-agarose beads (Boehringer-Mannheim, 50% slurry) were added and incubated with continuous rocking for two hours at 4° C. The agarose bead-ERK immune complexes were washed twice with 1mL lysis buffer then once in 1mL kinase buffer (30 mM Tris pH 8.0, 20 mM MgCl2, 2 mM MnCl2) and then drained to dryness with a fine gauge Hamilton syringe. The kinase reaction was started by adding 30 μL kinase buffer containing 2 μg myelin basic protein (MBP, Sigma), 10 μM cold ATP and 2.5 μCi [^32P]γ-ATP (Amersham). The reaction was incubated for 25 minutes at 30° C. and then stopped by the addition of 10 μL hot 4×-sample buffer. The phosphorylated MBP was resolved on a 14% SDS-PAGE gel (Novex), stained, dried and the Coomassie Brilliant Blue-stained band was excise and counted on a liquid scintillation counter (Beckman).

ERK1 and ERK2 = assay: ERK immune complex kinase assay in C3H/10T½ fibroblasts; type: cell-based, Murine; conditions: C3H/10T½ fibroblasts treated with 10M analogue, stimulated 5 minutes
Method: Since Edg2 couples to Gpa1, this receptor could also couple to Gi in mammalian cells as well. […] Murine C3H/10T½ fibroblasts were treated with […] analogue and assayed for induction of ERK½ activity. […] The structural requirements of LPA with respect to ERK activation are quite different from the yeast Edg2 lacZ reporter assay. For example, the hydroxyl on the sn-2 carbon of the glycerol can be substituted with little effect in the Edg2-mediated activation of FUS1::lacZ whereas in ERK activation, loss of this hydroxyl almost completely abolishes activity.
LacZ assays in response to lysophosphatidic acid and LPA analogs- JEY5+pJE15 was grown on SC media containing either 2% galactose or 2% glucose lacking uracil to an approximate O.D. of 0.1-0.5 prior to the addition of lipid or α-factor. […] Color development was measured at A420 and normalized to A600. Units were expressed as Miller Units. […] The phosphorylated MBP was resolved on a 14% SDS-PAGE gel (Novex), stained, dried and the Coomassie Brilliant Blue-stained band was excise and counted on a liquid scintillation counter (Beckman).

Edg2 receptor [2] = biological target: T1, Edg2 receptor; conditions: cited from earlier work; for activation of FUS1::lacZ (previously known): yeast expressing the Edg2 receptor, previously known results
MDA MB 231 cells [3] = conditions: cited from earlier work
MDA MB 231 cells [4] = conditions: cited from earlier work; remark: listed apart in the source
ERK = ERK activity in A549 lung carcinoma overexpressing Edg2 mRNA; type: cell-based; conditions: overexpresses Edg2 mRNA
Text: Edg2 is not involved in the activation of the MAPKinase ERK. This is somewhat surprising since Edg2 coupled to the endogenous Saccharomyces G-protein, it was reasonable to conclude that Edg2 may couple to mammalian Gi heterotrimeric G-proteins. If this were true, then Edg2 would activate ERK, which is activated by LPA in a pertusis toxin-dependent manner. However, the SAR of LPA for ERK activation is completely different from the SAR of LPA-mediated activation of FUS1::lacZ and calcium mobilization. It is unlikely that expressing this receptor in yeast has changed its ligand binding characteristics. The somatostatin 2A receptor when expressed in yeast maintains it's binding profiles when compared with mammalian cells.

T1 sequence (Q92633 whole entry): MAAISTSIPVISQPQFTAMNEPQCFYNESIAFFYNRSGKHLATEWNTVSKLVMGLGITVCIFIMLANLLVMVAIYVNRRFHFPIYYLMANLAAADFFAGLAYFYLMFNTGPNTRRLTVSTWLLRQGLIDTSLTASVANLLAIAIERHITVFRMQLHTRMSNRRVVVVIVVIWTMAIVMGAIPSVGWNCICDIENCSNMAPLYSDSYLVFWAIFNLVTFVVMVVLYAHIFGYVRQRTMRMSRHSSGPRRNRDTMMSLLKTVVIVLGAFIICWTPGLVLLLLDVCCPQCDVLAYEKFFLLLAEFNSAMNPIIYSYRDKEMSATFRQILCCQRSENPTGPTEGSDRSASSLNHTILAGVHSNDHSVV

Compound	activation of FUS1::lacZ by 18:1 analogs (FIG. 4) (Edg2 receptor [1])	activation of FUS1::lacZ (previously known) (Edg2 receptor [2])	further results
CCCCCCCC/C=C\CCCCCCCC(=O)OCC(COP(=O)(OC)OC)OC (racemic) [Compound 18, Dimethyl 3-O-oleoyl-2-O-methyl-rac-glycero-1-phosphate]	had less lacZ activity		
CCCCCC(=O)OC[C@@H](O)COP(=O)(O)O [Compound 1]		inactive	
CCCCCCCCCC(=O)OC[C@@H](O)COP(=O)(O)O [Compound 2]		inactive	
CCCCCCCCCCCCCC(=O)OC[C@@H](O)COP(=O)(O)O [Compound 3, reference compound]			activation of FUS1::lacZ, dependence on acyl chain length (FIG. 2) (Edg2 receptor [1]; yeast expressing the Edg2 receptor, acyl-LPA chain length analogs): inactive
CCCCCCCCCCCCCCCC(=O)OC[C@@H](O)COP(=O)(O)O [Compound 4]		significant activity	
CCCCCCCCCCCCCCCCCC(=O)OC[C@@H](O)COP(=O)(O)O [Compound 5]		significant activity	
CCCCCCCC/C=C\CCCCCCCC(=O)OC[C@@H](O)COP(=O)(O)O [Compound 6]		most active	
CCCCCCCC/C=C\CCCCCCCC(=O)OCCCOP(=O)(O)O [Compound 12, 1-(3-propyl oleoate) phosphate]	retained some FUS1::lacZ activity; also recorded: increased activity significantly; also recorded: does activate FUS1::lacZ		calcium mobilization (MDA MB 231 cells [3]): only slightly mobilizes calcium; activation of ERK½ (FIG. 5) (ERK1 and ERK2): does not activate ERK; inhibition of cAMP accumulation (MDA MB 231 cells [4]): does not inhibit cAMP accumulation
CCCCCCCC/C=C\CCCCCCCCOCCCOP(=O)(OC)OC [Compound 29, Dimethyl 3-oleyloxypropyl-1-phosphate]	inactive		
O-acyl-2-hydroxyl-sn-glycero-3-phosphate [LPA]			pEC50 (Edg2 receptor [2]; yeast expressing Edg2, FUS1::lacZ reporter, read-out: E.C.50 of the yeast assay): 4.70; stimulation of ERK activity (ERK): does not stimulate ERK activity

Further lines, with some results ahead:

activation of FUS1::lacZ by 18:1 analogs (FIG. 4) (Edg2 receptor [1])	Compound	activation of FUS1::lacZ (previously known) (Edg2 receptor [2])	further results
still retained some lacZ activity	CCCCCCCC/C=C\CCCCCCCC(=O)OCC(CO)OC (racemic) [Compound 17, 1-O-Oleoyl-2-O-methyl-rac-glycerol]		
retained some FUS1::lacZ activity	CCCCCCCC/C=C\CCCCCCCC(=O)OCC(Br)COP(=O)(O)O (racemic) [Compound 23, 3-O-Oleoyl-2-deoxy-2-bromo-rac-glycero-1-phosphate]		
inactive	CCCCCCCC/C=C\CCCCCCCCOCC(O)COP(=O)(O)O (racemic) [Compound 26, 3-O-Oleyl-rac-glycero-1-phosphate]		activation of ERK½ (FIG. 5) (ERK1 and ERK2): can activate ERK almost as well as the ester form
inactive	CCCCCCCC/C=C\CCCCCCCCOCC(COP(=O)(O)O)OC (racemic) [Compound 36, 3-O-Oleyl-2-O-methyl-rac-glycero-1-phosphate]		
still retained some lacZ activity	CCCCCCCC/C=C\CCCCCCCC(=O)OCCCO [Compound 10, 3-Hydroxypropyl oleate]		
had less lacZ activity	CCCCCCCC/C=C\CCCCCCCC(=O)OCCCOP(=O)(OC)OC [Compound 11, Dimethyl 1-(3-propyl oleoate) phosphate]		
